Consider eleven compounds from patent US5602153A, “Method of using 1-arylheteroarylalkyl substituted-1H-1,2,4-triazole compounds for treatment of a giaucoma disorder” (G.D. Searle & Co., priority 1993, dated 1997).

Where two headings read alike, the source gives them in different places. Some results are limits rather than exact numbers.

Assay [1] addresses smooth muscle angiotensin II receptor. Description: Assay A: Angiotensin II Binding Activity (displacement of 125I-AII, rat uterine membrane preparation). Particulars: rat uterine membranes, 25 °C, 60 min; read-out: IC50 (50% displacement of total specifically bound 125I-AII). Here is the method: Assay A: Anaiotensin II Binding Activity
Compounds of the invention were tested for ability to bind to the smooth muscle angiotensin II receptor using a rat uterine membrane preparation. Angiotensin II (AII) was purchased from Peninsula Labs. ^125 I-angiotensin II (specific activity of 2200 Ci/mmol) was purchased from Du Pont-New England Nuclear. Other chemicals were obtained from Sigma Chemical Co. This assay was carried out according to the method of Douglas et al [Endocrinology, 106, 120-124 (1980)]. Rat uterine membranes were prepared from fresh tissue. All procedures were carried out at 4° C. Uteri were stripped of fat and homogenized in phosphate-buffered saline at pH 7.4 containing 5 mM EDTA. The homogenate was centrifuged at 1500×g for 20 min., and the supernatant was recentrifuged at 100,000×g for 60 min. The pellet was resuspended in buffer consisting of 2 mM EDTA and 50 mM Tris-HCl (pH 7.5) to a final protein concentration of 4 mg/ml. Assay tubes were charged with 0.25 ml of a solution containing 5 mM MgCl2, 2 mM EDTA, 0.5% bovine serum albumin, 50 mM Tris-HCl, pH 7.5 and ^125 I-AII (approximately 10^5 cpm) in the absence or in the presence of unlabelled ligand. The reaction was initiated by the addition of membrane protein and the mixture was incubated at 25° C. for 60 min. The incubation was terminated with ice-cold 50 mM Tris-HDl (pH 7.5) and the mixture was filtered to separate membrane-bound labelled peptide from the free ligand. The incubation tube and filter were washed with ice-cold buffer. Filters were assayed for radioactivity in a Micromedic gamma counter. Nonspecific binding was defined as binding in the presence of 10 μM of unlabelled AII. Specific binding was calculated as total binding minus nonspecific binding. The receptor binding affinity of an AII antagonist compound was indicated by the concentration (IC50) of the tested AII antagonist which gives 50% displacement of the total specifically bound ^125 I-AII from the high affinity AII receptor. Binding data were analyzed by a nonlinear least-squares curve fitting program.

Another assay has as its system pressor response to AII. Kind of assay: Assay C: In Vivo Intragastric Pressor Assay Response for AII Antagonists. On the set-up: species or system rat (male Sprague-Dawley). Particulars: 3 mg/kg i.g., rat, AII 30 ng/kg bolus; for inhibition in vivo at 3 mg/kg: po. The protocol:
Assay C: In Vivo Intragastric Pressor Assay Response for AII Antagonists of the Invention
Male Sprague-Dawley rats weighing 225-300 grams were anesthetized with methohexital (30 mg/kg, i.p.) and catheters were implanted into the femoral artery and vein. The catheters were tunneled subcutaneously to exit dorsally, posterior to the head and between the scapulae. The catheters were filled with heparin (1000 units/ml of saline). The rats were returned to their cage and allowed regular rat chow and water ad libitum. After full recovery from surgery (3-4 days), rats were placed in Lucite holders and the arterial line was connected to a pressure transducer. Arterial pressure was recorded on a Gould polygraph (mmHg). Angiotensin II was administered as a 30 ng/kg bolus via the venous catheter delivered in a 50 μl volume with a 0.2 ml saline flush. The pressor response in mmHg was measured by the difference from pre-injectionarterial pressure to the maximum pressure achieved. The AII injection was repeated every 10 minutes until three consecutive injections yielded responses within 4 mmHg of each other. These three responses were then averaged and represented the control response to AII. The test compound was suspended in 0.5% methylcellulose in water and was administered by gavage. The volume administered was 2 ml/kg body weight. The standard dose was 3 mg/kg. Angiotensin II bolus injections were given at 30, 45, 60, 75, 120, 150, and 180 minutes after gavage. The pressor response to AII was measured at each time point. The rats were then returned to their cage for future testing. A minimum of 3 days was allowed between tests. Percent inhibition was calculated for each time point following gavage by the following formula: [(Control Response-Response at time point)/Control Response]×100.

The next assay concerns the target T1, rabbit aortic rings (Oryctolagus cuniculus, UniProt P34976).
T1 construct: The thoracic aorta was removed, cleaned of adherent fat and connective tissue; from tissue; host or cells: thoracic aorta rings, endothelium removed, male New Zealand white rabbit
T1 sequence (P34976 1-359): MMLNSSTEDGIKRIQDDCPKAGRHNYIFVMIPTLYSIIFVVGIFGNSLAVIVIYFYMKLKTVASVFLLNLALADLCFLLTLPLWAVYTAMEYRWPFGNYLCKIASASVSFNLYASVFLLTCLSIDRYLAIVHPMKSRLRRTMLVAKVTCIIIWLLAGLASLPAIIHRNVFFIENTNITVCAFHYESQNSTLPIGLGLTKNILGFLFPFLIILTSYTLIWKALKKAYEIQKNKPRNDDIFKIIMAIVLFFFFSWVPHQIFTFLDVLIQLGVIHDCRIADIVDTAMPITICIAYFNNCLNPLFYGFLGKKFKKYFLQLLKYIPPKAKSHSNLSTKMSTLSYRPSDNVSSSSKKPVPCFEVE
Description: Assay B: In Vitro Vascular Smooth Muscle-Response for AII (antagonist activity in rabbit aortic rings). Type of assay: cell-based, rabbit (male New Zealand white). To be noted: antagonist 10^-5 M for 5 min, AII challenge. Here is the method: Assay B: In Vitro Vascular Smooth Muscle-Response for AII The compounds of the invention were tested for antagonist activity in rabbit aortic rings. Male New Zealand white rabbits (2-2.5 kg) were sacrificed using an overdose of pentobarbital and exsanguinated via the carotid arteries. The thoracic aorta was removed, cleaned of adherent fat and connective tissue and then cut into 3-mm ring segments. The endothelium was removed from the rings by gently sliding a rolled-up piece of filter paper into the vessel lumen. The rings were then mounted in a water-jacketed tissue bath, maintained at 37° C., between moveable and fixed ends of a stainless steel wire with the moveable end attached to an FT03 Grass transducer coupled to a Model 7D Grass Polygraph for recording isometric force responses. The bath was filled with 20 ml of oxygenated (95% oxygen/5% carbon dioxide) Krebs solution of the following composition (mM): 130 NaCl, 15 NaHCO3, 15 KCl, 1.2 NaH2 PO4, 1.2 MgSO4, 2.5 CaCl2, and 11.4 glucose. The preparations were equilibrated for one hour before approximately one gram of passive tension was placed on the rings. Angiotensin II concentration-response curves were then recorded (3×10^-10 to 1×10^-5 M). Each concentration of AII was allowed to elicit its maximal contraction, and then AII was washed out repeatedly for 30 minutes before rechallenging with a higher concentration of AII. Aorta rings were exposed to the test antagonist at 10^-5 M for 5 minutes before challenging with AII. Adjacent segments of the same aorta ring were used for all concentration-response curves in the presence or absence of the test antagonist. The effectiveness of the test compound was expressed in terms of pA2 values and were calculated according to H.O. Schild [Br. J. Pharmacol. Chemother., 2, 189-206 (1947)]. The pA2 value is the concentration of the antagonist which increases the EC50 value for AII by a factor of two. Each test antagonist was evaluated in aorta rings from two rabbits.

The test system of a further assay is angiotensin II receptor. To be noted: cited from earlier work; for angiotensin II antagonist activity: binding experiments, functional assays and in vitro / in vivo tests.
Where [2] appears, read: first of two rabbits, read-out: pA2 (first value) (converted).
Where [3] appears, read: second of two rabbits, read-out: pA2 (converted).

Consider `CCCCc1nc(-c2ccccc2Cl)nn1Cc1ccc(-c2ccccc2-c2nnn[nH]2)nc1` [Example 29, 5-[2-[5-[[3-(2-chlorophenyl)-5-butyl-1H-1,2,4-triazol-1-yl)methyl]-2-pyridinyl]phenyl]-1H-tetrazole], for which, in assay [1], the IC50 stood at 25 nM. Also, in the assay on pressor response to AII, the “Duration (of inhibition of AII pressor response)” value was greater than 180 min and at 3 mg/kg the inhibition in vivo was 25%.
`CCCCc1nc(-c2ccccc2Cl)n(Cc2ccc(-c3ccccc3-c3nnn[nH]3)nc2)n1` [Example 30, 5-[2-[5-[[3-butyl-5-(2-chlorophenyl)-1H-1,2,4-triazol-1-yl)methyl]-2-pyridinyl]phenyl]-1H-tetrazole]: the IC50 in assay [1] is 520 nM. The compound further came in with an inhibition in vivo at 3 mg/kg in the assay on pressor response to AII of 0%.
As to `CCCCc1nc(C(=O)N(C)C(C)(C)C)n(Cc2ccc(-c3ccccc3-c3nnn[nH]3)nc2)n1` [Example 18, 5-[2-[5-[[3-butyl-5-(N-methyl-N-tertbutylamido)-1H-1,2,4-triazol-1-yl)methyl]-2-pyridinyl]phenyl]-1H-tetrazole], the IC50 in assay [1] was 4.1 nM. Further, the Kb at rabbit aortic rings (setting [2]) was 3.72 nM. Besides, the Kb on rabbit aortic rings (setting [3]) was 16.6 nM. In addition, in the assay with pressor response to AII, the “Duration (of inhibition of AII pressor response)” value is greater than 180 min and the inhibition in vivo at 3 mg/kg stood at 30%.
As for `CCCCc1nc(C(F)(F)CCC)n(Cc2ccc(-c3ccccc3-c3nnn[nH]3)nc2)n1` [Example 10, 5-[2-[5-[[3-butyl-5-(1,1-difluorobutyl)-1H-1,2,4-triazol-1-yl)methyl]-2-pyridinyl]phenyl]-1H-tetrazole], the IC50 in assay [1] stood at 20 nM. Besides, the Kb on rabbit aortic rings (setting [2]) is 20.9 nM; at rabbit aortic rings (setting [3]) it was 31.6 nM. For the same compound, the inhibition in vivo at 3 mg/kg in the assay on pressor response to AII was found to be 10%.
Consider `CCCCc1nc(C(=O)N(C)C(C)(C)C)nn1Cc1ccc(-c2ccccc2-c2nnn[nH]2)nc1` [Example 17, 5-[2-[5-[[3-(N-methyl-N-tertbutylamido)-5-butyl-1H-1,2,4-triazol-1-yl)methyl]-2-pyridinyl]phenyl]-1H-tetrazole], for which, in assay [1], the IC50 was determined as 12 nM. For the same compound, the results for the Kb on rabbit aortic rings (setting [2]) and at rabbit aortic rings (setting [3]) were 24.5 nM and 34.7 nM, respectively. Moreover, in the assay on pressor response to AII, the “Duration (of inhibition of AII pressor response)” value is greater than 180 min. For the same compound, the inhibition in vivo at 3 mg/kg with pressor response to AII came out at 20%.
Consider `CCCCc1nc(Cl)c(CC(=O)O)n1Cc1ccccc1[N+](=O)[O-]` [2-butyl-4-chloro-1-(2-nitrobenzyl)imidazole-5-acetic acid], for which the “angiotensin II antagonist activity” value with angiotensin II receptor is reported as “specific competitive angiotensin II antagonist activity”.
Take `CCCCc1nc(CC(C)(C)C)n(Cc2ccc(-c3ccccc3-c3nnn[nH]3)nc2)n1` [Example 12, 5-[2-[5-[(3-butyl-5-neopentyl-1H-1,2,4-triazol-1-yl)methyl]-2-pyridinyl]phenyl]-1H-tetrazole]: the IC50 in assay [1] was found to be 43 nM. At 3 mg/kg the inhibition in vivo with pressor response to AII was 0%.
Turning to `CCCCc1nc(C(F)(F)CCC)nn1Cc1ccc(-c2ccccc2-c2nnn[nH]2)nc1` [Example 9, 5-[2-[5-[[3-(1,1-difluorobutyl)-5-butyl-1H-1,2,4-triazol-1-yl)methyl]-2-pyridinyl]phenyl]-1H-tetrazole], in assay [1], the IC50 came to 9.4 nM. Moreover, the Kb at rabbit aortic rings (setting [2]) is 5.5 nM. The Kb at rabbit aortic rings (setting [3]) is 3.89 nM. Also, in the assay on pressor response to AII, the “Duration (of inhibition of AII pressor response)” value was 180 min and the inhibition in vivo at 3 mg/kg is 20%.
Consider `CCCCc1nc(CC(C)(C)C)nn1Cc1ccc(-c2ccccc2-c2nnn[nH]2)nc1` [Example 11, 5-[2-[5-[[3-neopentyl-5-butyl-1H-1,2,4-triazol-1-yl)methyl]-2-pyridinyl]phenyl]-1H-tetrazole], for which the IC50 in assay [1] was 4.4 nM. Besides, in the assay with pressor response to AII, the “Duration (of inhibition of AII pressor response)” value is greater than 180 min and the inhibition in vivo at 3 mg/kg worked out at 20%.
As to `CNCC(=O)N[C@@H](CCCN=C(N)N)C(=O)N[C@H](C(=O)N[C@@H](Cc1ccc(O)cc1)C(=O)N[C@H](C(=O)N[C@@H](Cc1cnc[nH]1)C(=O)N1CCC[C@H]1C(=O)N[C@@H](C)C(=O)O)C(C)C)C(C)C` [Saralasin], in the assay on angiotensin II receptor, the residual agonist activity result is listed as “significant residual agonist activity”.
Turning to `CCCCc1nc(Cl)c(CC(=O)O)n1Cc1ccccc1Cl` [2-n-butyl-4-chloro-1-(2-chlorobenzyl)imidazole-5-acetic acid], in the assay on angiotensin II receptor, the “angiotensin II antagonist activity” value is on record as “specific competitive angiotensin II antagonist activity”.
